How the values were obtained:
[1] = target: Vascular endothelial growth factor receptor 1 (Homo sapiens, UniProt P17948); experiment: Inhibition of VEGFR1 assessed as inhibition of phosphorylation in presence of 2 uM ATP by HTRF assay; type: functional
[2] = target: T1, Vascular endothelial growth factor receptor 2 (Homo sapiens, UniProt P35968); experiment: Inhibition of VEGFR2 assessed as inhibition of phosphorylation in presence of 2 uM ATP by HTRF assay; type: functional
[3] = target: T1, Vascular endothelial growth factor receptor 2; experiment: Inhibition of VEGFR2 assessed as inhibition of phosphorylation in human 293 cells by cell-based ELISA; type: functional, HEK293
[4] = target: Insulin-like growth factor 1 receptor (Homo sapiens) (UniProt P08069); experiment: Inhibition of IGF1R at 10 uM; set-up: scale not given: the % may be the effect or the level left
Homo sapiens [5] = organism: Homo sapiens; experiment: Inhibition of InR at 10 uM; set-up: scale not given: the % may be the effect or the level left
[6] = target: Fibroblast growth factor receptor 1 (Homo sapiens) (UniProt P11362); experiment: Inhibition of FGFR1 at 10 uM; set-up: scale not given: the % may be the effect or the level left
[7] = target: Receptor-type tyrosine-protein kinase FLT3 (Homo sapiens) (UniProt P36888); experiment: Inhibition of Flt3 at 10 uM; set-up: scale not given: the % may be the effect or the level left
[8] = target: Vascular endothelial growth factor receptor 3 (Homo sapiens) (UniProt P35916); experiment: Inhibition of Flt4 at 10 uM; set-up: scale not given: the % may be the effect or the level left
[9] = target: Epidermal growth factor receptor (Homo sapiens) (UniProt P00533); experiment: Inhibition of ErbB1 at 10 uM; set-up: scale not given: the % may be the effect or the level left
[10] = target: Receptor tyrosine-protein kinase erbB-2 (Homo sapiens) (UniProt P04626); experiment: Inhibition of ErbB2/Her2 at 10 uM; set-up: scale not given: the % may be the effect or the level left
[11] = target: Hepatocyte growth factor receptor (Homo sapiens) (UniProt P08581); experiment: Inhibition of cMet at 10 uM; set-up: scale not given: the % may be the effect or the level left
Homo sapiens [12] = organism: Homo sapiens; experiment: Inhibition of PKA at 10 uM; set-up: scale not given: the % may be the effect or the level left
[13] = target: Glycogen synthase kinase-3 beta (Homo sapiens) (UniProt P49841); experiment: Inhibition of GSK3-beta at 10 uM; set-up: scale not given: the % may be the effect or the level left
[14] = target: RAC-alpha serine/threonine-protein kinase (Homo sapiens) (UniProt P31749); experiment: Inhibition of PKB/Akt at 10 uM; set-up: scale not given: the % may be the effect or the level left
Homo sapiens [15] = organism: Homo sapiens; experiment: Inhibition of bcr-Abl at 10 uM; set-up: scale not given: the % may be the effect or the level left
Homo sapiens [16] = organism: Homo sapiens; experiment: Inhibition of Cdk1 at 10 uM; set-up: scale not given: the % may be the effect or the level left
[17] = target: RAF proto-oncogene serine/threonine-protein kinase (Homo sapiens) (UniProt P04049); experiment: Inhibition of Raf1 at 10 uM; set-up: scale not given: the % may be the effect or the level left
[18] = target: Cyclin-dependent kinase 2 (Homo sapiens) (UniProt P24941); experiment: Inhibition of Cdk2 at 10 uM; set-up: scale not given: the % may be the effect or the level left

Sequence of Receptor-type tyrosine-protein kinase FLT3 (Homo sapiens) (P36888 whole entry): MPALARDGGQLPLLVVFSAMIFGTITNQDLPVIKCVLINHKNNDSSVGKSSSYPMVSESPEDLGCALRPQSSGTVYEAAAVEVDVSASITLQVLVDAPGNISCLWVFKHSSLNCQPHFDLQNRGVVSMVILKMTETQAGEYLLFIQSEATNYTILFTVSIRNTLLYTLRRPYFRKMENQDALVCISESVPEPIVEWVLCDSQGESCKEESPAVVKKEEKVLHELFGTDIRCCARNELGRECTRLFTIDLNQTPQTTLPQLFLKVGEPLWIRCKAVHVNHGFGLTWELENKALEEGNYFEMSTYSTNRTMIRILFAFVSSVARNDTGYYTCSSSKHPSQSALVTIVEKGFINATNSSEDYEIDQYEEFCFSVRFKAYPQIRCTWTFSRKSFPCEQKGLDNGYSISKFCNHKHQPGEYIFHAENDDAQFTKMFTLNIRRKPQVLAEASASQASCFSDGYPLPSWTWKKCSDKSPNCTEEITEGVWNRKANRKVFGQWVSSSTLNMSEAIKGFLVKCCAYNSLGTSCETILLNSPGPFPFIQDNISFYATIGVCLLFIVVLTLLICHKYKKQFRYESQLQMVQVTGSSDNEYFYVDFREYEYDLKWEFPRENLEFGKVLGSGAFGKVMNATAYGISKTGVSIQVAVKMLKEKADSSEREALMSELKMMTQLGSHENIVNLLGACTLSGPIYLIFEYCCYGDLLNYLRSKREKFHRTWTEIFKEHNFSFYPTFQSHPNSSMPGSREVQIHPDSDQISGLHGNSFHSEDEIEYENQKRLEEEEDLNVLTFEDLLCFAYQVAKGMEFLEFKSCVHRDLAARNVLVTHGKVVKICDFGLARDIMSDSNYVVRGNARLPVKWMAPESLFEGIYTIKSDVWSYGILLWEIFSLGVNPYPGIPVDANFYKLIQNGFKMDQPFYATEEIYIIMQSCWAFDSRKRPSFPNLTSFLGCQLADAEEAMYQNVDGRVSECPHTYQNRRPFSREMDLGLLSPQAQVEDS
Sequence of Receptor tyrosine-protein kinase erbB-2 (Homo sapiens) (P04626 whole entry): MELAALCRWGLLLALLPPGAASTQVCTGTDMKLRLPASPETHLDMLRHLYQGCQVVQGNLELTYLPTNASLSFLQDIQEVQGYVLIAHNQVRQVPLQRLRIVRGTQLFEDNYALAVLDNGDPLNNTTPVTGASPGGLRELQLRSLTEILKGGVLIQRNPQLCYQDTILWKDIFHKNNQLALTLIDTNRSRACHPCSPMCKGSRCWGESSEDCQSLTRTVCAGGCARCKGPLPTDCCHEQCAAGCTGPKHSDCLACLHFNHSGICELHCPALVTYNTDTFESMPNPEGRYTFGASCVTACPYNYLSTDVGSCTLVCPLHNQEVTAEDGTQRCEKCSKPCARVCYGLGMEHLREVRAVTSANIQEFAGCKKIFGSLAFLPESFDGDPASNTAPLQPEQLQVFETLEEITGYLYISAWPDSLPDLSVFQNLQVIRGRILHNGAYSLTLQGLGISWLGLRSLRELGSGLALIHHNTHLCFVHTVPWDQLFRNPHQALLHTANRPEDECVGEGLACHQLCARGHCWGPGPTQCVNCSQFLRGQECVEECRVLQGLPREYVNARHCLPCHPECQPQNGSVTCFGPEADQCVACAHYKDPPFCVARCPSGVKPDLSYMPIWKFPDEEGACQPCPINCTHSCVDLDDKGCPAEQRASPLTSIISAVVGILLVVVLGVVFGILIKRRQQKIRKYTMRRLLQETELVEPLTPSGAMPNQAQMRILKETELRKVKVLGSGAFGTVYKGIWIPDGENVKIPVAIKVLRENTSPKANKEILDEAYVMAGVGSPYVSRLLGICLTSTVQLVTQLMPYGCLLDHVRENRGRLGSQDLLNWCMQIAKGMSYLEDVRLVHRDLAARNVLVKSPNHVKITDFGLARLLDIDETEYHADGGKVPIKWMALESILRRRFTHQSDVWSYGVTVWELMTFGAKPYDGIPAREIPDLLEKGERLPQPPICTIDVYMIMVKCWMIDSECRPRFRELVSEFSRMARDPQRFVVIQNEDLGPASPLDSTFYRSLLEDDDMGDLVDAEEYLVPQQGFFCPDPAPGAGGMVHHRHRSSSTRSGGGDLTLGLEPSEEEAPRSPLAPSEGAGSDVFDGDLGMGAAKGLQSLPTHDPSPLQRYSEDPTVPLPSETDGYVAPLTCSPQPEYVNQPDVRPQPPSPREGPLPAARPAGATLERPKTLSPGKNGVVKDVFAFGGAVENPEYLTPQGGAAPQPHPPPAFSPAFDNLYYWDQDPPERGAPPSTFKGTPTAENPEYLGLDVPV
Sequence of Insulin-like growth factor 1 receptor (Homo sapiens) (P08069 31-736 limits assumed): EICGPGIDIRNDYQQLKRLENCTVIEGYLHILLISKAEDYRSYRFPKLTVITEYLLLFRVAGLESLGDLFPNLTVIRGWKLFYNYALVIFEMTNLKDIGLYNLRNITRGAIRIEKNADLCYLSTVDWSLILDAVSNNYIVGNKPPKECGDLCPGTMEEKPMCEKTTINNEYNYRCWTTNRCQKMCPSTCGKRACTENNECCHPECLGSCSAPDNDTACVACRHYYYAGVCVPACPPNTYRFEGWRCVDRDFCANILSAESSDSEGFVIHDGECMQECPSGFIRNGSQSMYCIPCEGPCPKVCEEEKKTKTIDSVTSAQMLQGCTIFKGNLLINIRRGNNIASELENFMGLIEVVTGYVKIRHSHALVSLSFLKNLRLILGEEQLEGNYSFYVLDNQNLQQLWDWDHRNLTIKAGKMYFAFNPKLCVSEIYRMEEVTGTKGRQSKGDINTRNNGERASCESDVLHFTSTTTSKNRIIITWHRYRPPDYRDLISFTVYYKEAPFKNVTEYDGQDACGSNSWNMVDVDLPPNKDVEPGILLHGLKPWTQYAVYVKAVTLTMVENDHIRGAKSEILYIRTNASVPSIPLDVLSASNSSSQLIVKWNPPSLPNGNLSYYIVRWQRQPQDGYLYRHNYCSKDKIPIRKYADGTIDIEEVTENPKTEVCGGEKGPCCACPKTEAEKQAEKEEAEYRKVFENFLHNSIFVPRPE
Sequence of Insulin-like growth factor 1 receptor (Homo sapiens) (P08069 741-1367 limits assumed): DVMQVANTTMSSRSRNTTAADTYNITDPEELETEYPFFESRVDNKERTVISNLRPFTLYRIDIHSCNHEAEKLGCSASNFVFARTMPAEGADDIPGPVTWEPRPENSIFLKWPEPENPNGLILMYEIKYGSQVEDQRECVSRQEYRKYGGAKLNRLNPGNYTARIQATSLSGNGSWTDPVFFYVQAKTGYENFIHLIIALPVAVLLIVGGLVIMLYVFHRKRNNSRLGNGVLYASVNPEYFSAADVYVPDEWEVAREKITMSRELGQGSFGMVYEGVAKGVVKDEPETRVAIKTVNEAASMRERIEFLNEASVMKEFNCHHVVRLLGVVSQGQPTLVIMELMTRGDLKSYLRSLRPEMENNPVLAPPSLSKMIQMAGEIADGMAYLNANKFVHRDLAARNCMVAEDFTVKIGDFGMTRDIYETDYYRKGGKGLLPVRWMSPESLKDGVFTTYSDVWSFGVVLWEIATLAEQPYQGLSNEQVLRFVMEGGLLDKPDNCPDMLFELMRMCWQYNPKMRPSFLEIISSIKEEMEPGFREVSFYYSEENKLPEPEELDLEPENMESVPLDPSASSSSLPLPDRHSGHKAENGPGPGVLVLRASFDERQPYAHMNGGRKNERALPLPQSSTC
T1 sequence (P35968 whole entry): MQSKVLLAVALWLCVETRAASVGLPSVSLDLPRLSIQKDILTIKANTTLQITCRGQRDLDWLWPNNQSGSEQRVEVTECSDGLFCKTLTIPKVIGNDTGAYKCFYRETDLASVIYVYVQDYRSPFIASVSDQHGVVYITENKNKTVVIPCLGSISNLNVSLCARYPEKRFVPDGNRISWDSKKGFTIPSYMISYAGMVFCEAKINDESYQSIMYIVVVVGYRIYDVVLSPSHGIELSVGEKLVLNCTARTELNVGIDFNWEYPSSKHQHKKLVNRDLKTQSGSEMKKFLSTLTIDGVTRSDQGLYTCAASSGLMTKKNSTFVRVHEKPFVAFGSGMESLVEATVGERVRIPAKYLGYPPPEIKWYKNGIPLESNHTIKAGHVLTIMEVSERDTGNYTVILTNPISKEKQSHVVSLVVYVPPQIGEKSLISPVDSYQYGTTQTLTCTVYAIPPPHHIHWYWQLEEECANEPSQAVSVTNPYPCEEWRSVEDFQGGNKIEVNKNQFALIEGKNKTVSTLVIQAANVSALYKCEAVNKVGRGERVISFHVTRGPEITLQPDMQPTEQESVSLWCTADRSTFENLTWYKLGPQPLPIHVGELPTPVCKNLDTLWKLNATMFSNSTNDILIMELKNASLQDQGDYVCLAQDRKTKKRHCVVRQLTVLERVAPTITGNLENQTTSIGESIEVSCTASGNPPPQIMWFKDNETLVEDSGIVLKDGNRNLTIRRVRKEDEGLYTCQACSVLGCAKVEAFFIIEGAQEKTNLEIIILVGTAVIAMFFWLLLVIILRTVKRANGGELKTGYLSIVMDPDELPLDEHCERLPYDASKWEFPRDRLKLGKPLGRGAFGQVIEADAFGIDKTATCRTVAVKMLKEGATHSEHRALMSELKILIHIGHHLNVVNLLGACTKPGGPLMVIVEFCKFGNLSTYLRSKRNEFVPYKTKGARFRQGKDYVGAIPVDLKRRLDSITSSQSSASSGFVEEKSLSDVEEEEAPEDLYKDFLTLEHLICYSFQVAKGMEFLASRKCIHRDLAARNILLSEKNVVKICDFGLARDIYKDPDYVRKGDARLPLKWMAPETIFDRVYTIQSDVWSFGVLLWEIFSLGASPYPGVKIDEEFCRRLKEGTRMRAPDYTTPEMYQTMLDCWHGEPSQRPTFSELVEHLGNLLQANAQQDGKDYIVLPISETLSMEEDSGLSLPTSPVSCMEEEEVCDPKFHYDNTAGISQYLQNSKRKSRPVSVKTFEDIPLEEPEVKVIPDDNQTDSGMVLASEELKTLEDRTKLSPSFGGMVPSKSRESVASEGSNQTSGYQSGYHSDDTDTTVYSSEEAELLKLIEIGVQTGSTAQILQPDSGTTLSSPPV

| Structure (SMILES) | IC50 [1] | IC50 [2] | IC50 [3] | Activity [4] | Activity (Homo sapiens [5]) | Activity [6] | Activity [7] | Activity [8] | Activity [9] | Activity [10] | Activity [11] | Activity (Homo sapiens [12]) | Activity [13] | Activity [14] | Activity (Homo sapiens [15]) | Activity (Homo sapiens [16]) | Activity [17] | Activity [18] |
| --- | --- | --- | --- | --- | --- | --- | --- | --- | --- | --- | --- | --- | --- | --- | --- | --- | --- | --- |
| O=C(Nc1ccc(OC(F)(F)F)cc1)c1nc2ccccc2n1CCc1ccncc1 | > 10 µM | > 10 µM | > 10 µM | > 30% | > 30% | > 30% | > 30% | > 30% | < 30% | > 30% | > 30% | > 30% | > 30% | > 30% | > 30% | > 30% | > 30% | > 30% |
| O=C(Nc1ccc(Cl)cc1)c1ccnn1CCc1cnoc1 | > 10 µM | > 10 µM | > 10 µM | > 30% | > 30% | > 30% | > 30% | > 30% | < 30% | > 30% | > 30% | > 30% | > 30% | > 30% | > 30% | > 30% | > 30% | > 30% |
| O=C(Nc1ccc2[nH]ncc2c1)c1ccnn1CCc1ccncc1 | > 10 µM | 5.15 µM | > 10 µM | > 30% | > 30% | > 30% | > 30% | > 30% | < 30% | > 30% | > 30% | > 30% | > 30% | > 30% | > 30% | > 30% | > 30% | > 30% |
| O=C(Nc1ccc(OCc2ccccc2)cc1)c1ccnn1CCc1ccncc1 | > 10 µM | > 10 µM | > 10 µM | > 30% | > 30% | > 30% | > 30% | > 30% | < 30% | > 30% | > 30% | > 30% | > 30% | > 30% | > 30% | > 30% | > 30% | > 30% |
| O=C(Nc1ccc(Cl)cc1)c1ccnn1CCc1cccnc1 | > 10 µM | > 10 µM | > 10 µM | > 30% | > 30% | > 30% | > 30% | > 30% | < 30% | > 30% | > 30% | > 30% | > 30% | > 30% | > 30% | > 30% | > 30% | > 30% |
| O=C(Nc1ccc(Cl)cc1)c1ccnn1CCc1ccccn1 | > 10 µM | > 10 µM | > 10 µM | > 30% | > 30% | > 30% | > 30% | > 30% | < 30% | > 30% | > 30% | > 30% | > 30% | > 30% | > 30% | > 30% | > 30% | > 30% |
| O=C(Nc1ccc2cn[nH]c2c1)c1ccnn1CCc1ccncc1 | > 10 µM | > 10 µM | > 10 µM | > 30% | > 30% | > 30% | > 30% | > 30% | < 30% | > 30% | > 30% | > 30% | > 30% | > 30% | > 30% | > 30% | > 30% | > 30% |
| O=C(Nc1ccc(Cl)cc1)c1nc2ccccc2n1CCc1ccncc1 | > 10 µM | > 10 µM | > 10 µM | > 30% | > 30% | > 30% | > 30% | > 30% | < 30% | > 30% | > 30% | > 30% | > 30% | > 30% | > 30% | > 30% | > 30% | > 30% |
| CC(C)(C)c1ccc(NC(=O)c2nccn2CCc2ccncc2)cc1 | 3.86 µM | 0.94 µM | 2.25 µM | > 30% | > 30% | > 30% | > 30% | > 30% | < 30% | > 30% | > 30% | > 30% | > 30% | > 30% | > 30% | > 30% | > 30% | > 30% |
| COc1ccc(CCn2nccc2C(=O)Nc2ccc(Cl)cc2)cc1OC | > 10 µM | > 10 µM | > 10 µM | > 30% | > 30% | > 30% | > 30% | > 30% | < 30% | > 30% | > 30% | > 30% | > 30% | > 30% | > 30% | > 30% | > 30% | > 30% |
| O=C(Nc1ccc(Cl)cc1)c1cc2ccccc2n1CCc1ccncc1 | > 10 µM | > 10 µM | > 10 µM | > 30% | > 30% | > 30% | > 30% | > 30% | < 30% | > 30% | > 30% | > 30% | > 30% | > 30% | > 30% | > 30% | > 30% | > 30% |
| O=C(Nc1ccc(C(F)(F)F)c(Cl)c1)c1nc2ccccc2n1CCc1ccncc1 | > 10 µM | > 10 µM | > 10 µM | > 30% | > 30% | > 30% | > 30% | > 30% | < 30% | > 30% | > 30% | > 30% | > 30% | > 30% | > 30% | > 30% | > 30% | > 30% |
| O=C(Nc1cccc(OC(F)(F)F)c1)c1ccnn1CCc1ccncc1 | 0.45 µM | 0.37 µM | 0.28 µM | > 30% | > 30% | > 30% | > 30% | > 30% | < 30% | > 30% | > 30% | > 30% | > 30% | > 30% | > 30% | > 30% | > 30% | > 30% |
| CN(C(=O)c1ccnn1CCc1ccncc1)c1ccc(Cl)cc1 | > 10 µM | > 10 µM |  |  |  |  |  |  |  |  |  |  |  |  |  |  |  |  |

Source: ChEMBL document CHEMBL1148870, “Novel inhibitors of VEGF receptors-1 and -2 based on azole-5-carboxamide templates” (Bioorg Med Chem Lett, 2007)
